# Experimental data as given in the supplement of paper PMC4862054.
# Where “and” joins values, the source holds several entries; their conditions need not be identical. Identical values can stand only once.
# System: HDQ-P1
# Test: normalised viability (% of control), CellTiter-Blue; higher = more viable cells (about 100 = DMSO control)
# Settings: 10 nM; incubation time: 72 h
# Description: (§1)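 DSRT, CellTiter-Blue viability, 72 h incubation. Signal is normalised to DMSO and benzethonium chloride controls. Value is the normalised response at dose 3.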
row,Structure (SMILES),normalised viability
1,O=C(O)C1(C(=O)O)CCC1.[NH2-].[NH2-].[Pt+2] [Carboplatin],96.6%
2,N#Cc1ccc(C(c2ccc(C#N)cc2)n2cncn2)cc1 [Letrozole],101%
3,C1CN1c1nc(N2CC2)nc(N2CC2)n1 [Triethylenemelamine],102%
4,CCCS(=O)(=O)Nc1ccc(F)c(C(=O)c2c[nH]c3ncc(-c4ccc(Cl)cc4)cc23)c1F [Vemurafenib],87.6%
5,O=C(O)C(=O)O.[NH-][C@@H]1CCCC[C@H]1[NH-].[Pt+2] [Oxaliplatin],119%
6,CCN(CC)CCCC(C)Nc1c2ccc(Cl)cc2nc2ccc(OC)cc12 (stereo not given) [Mepacrine],114%
7,Cc1ccc(-c2cc(C(F)(F)F)nn2-c2ccc(S(N)(=O)=O)cc2)cc1 [Celecoxib],109%
8,NCCCNCCSP(=O)(O)O [Amifostine],105%

# System: Hs578T
# Test: as above
# Settings: 9.9 nM; incubation time: 72 h
# Description: as §1
row,Structure (SMILES),normalised viability
1,CCN(CC)CCCC(C)Nc1c2ccc(Cl)cc2nc2ccc(OC)cc12 (stereo not given) [Mepacrine],114%

# Same assay, conditions: 10 nM; incubation time: 72 h
row,Structure (SMILES),normalised viability
1,O=C(/C=C/c1cccnc1)NCCCCC1CCN(C(=O)c2ccccc2)CC1 [FK-866],20.1%
2,CC[C@@H]1C(=O)N(C)c2cnc(Nc3ccc(C(=O)NC4CCN(C)CC4)cc3OC)nc2N1C1CCCC1 [BI 2536],83.5%

# Same assay, conditions: 100 nM; incubation time: 72 h
row,Structure (SMILES),normalised viability
1,Nc1nc(F)nc2c1ncn2[C@@H]1O[C@H](CO)[C@@H](O)[C@@H]1O [Fludarabine],95.4%
2,Nc1ncn([C@H]2C[C@H](O)[C@@H](CO)O2)c(=O)n1 [Decitabine],85.2% and 99.2%
3,O=C(O)C1(C(=O)O)CCC1.[NH2-].[NH2-].[Pt+2] [Carboplatin],96%
4,N#Cc1ccc(C(c2ccc(C#N)cc2)n2cncn2)cc1 [Letrozole],88.1%
5,C1CN1c1nc(N2CC2)nc(N2CC2)n1 [Triethylenemelamine],107%
6,CCCS(=O)(=O)Nc1ccc(F)c(C(=O)c2c[nH]c3ncc(-c4ccc(Cl)cc4)cc23)c1F [Vemurafenib],110%
7,O=C(O)C(=O)O.[NH-][C@@H]1CCCC[C@H]1[NH-].[Pt+2] [Oxaliplatin],95.7%
8,CCN(CC)CCCC(C)Nc1c2ccc(Cl)cc2nc2ccc(OC)cc12 (stereo not given) [Mepacrine],110%
9,Cc1ccc(-c2cc(C(F)(F)F)nn2-c2ccc(S(N)(=O)=O)cc2)cc1 [Celecoxib],83.1%
10,NCCCNCCSP(=O)(O)O [Amifostine],79.1%

# System: MDA-MB-231
# Test: as above
# Settings: 9.9 nM; incubation time: 72 h
# Description: as §1
row,Structure (SMILES),normalised viability
1,CCN(CC)CCCC(C)Nc1c2ccc(Cl)cc2nc2ccc(OC)cc12 (stereo not given) [Mepacrine],95.2%

# Same assay, conditions: 10 nM; incubation time: 72 h
row,Structure (SMILES),normalised viability
1,O=C(/C=C/c1cccnc1)NCCCCC1CCN(C(=O)c2ccccc2)CC1 [FK-866],83.1%
2,CC[C@@H]1C(=O)N(C)c2cnc(Nc3ccc(C(=O)NC4CCN(C)CC4)cc3OC)nc2N1C1CCCC1 [BI 2536],52.6%

# Same assay, conditions: 100 nM; incubation time: 72 h
row,Structure (SMILES),normalised viability
1,Nc1nc(F)nc2c1ncn2[C@@H]1O[C@H](CO)[C@@H](O)[C@@H]1O [Fludarabine],95.3%
2,Nc1ncn([C@H]2C[C@H](O)[C@@H](CO)O2)c(=O)n1 [Decitabine],86.7% and 95%
3,O=C(O)C1(C(=O)O)CCC1.[NH2-].[NH2-].[Pt+2] [Carboplatin],92.7%
4,N#Cc1ccc(C(c2ccc(C#N)cc2)n2cncn2)cc1 [Letrozole],84%
5,C1CN1c1nc(N2CC2)nc(N2CC2)n1 [Triethylenemelamine],115%
6,CCCS(=O)(=O)Nc1ccc(F)c(C(=O)c2c[nH]c3ncc(-c4ccc(Cl)cc4)cc23)c1F [Vemurafenib],94.6%
7,O=C(O)C(=O)O.[NH-][C@@H]1CCCC[C@H]1[NH-].[Pt+2] [Oxaliplatin],89%
8,CCN(CC)CCCC(C)Nc1c2ccc(Cl)cc2nc2ccc(OC)cc12 (stereo not given) [Mepacrine],89.8%
9,Cc1ccc(-c2cc(C(F)(F)F)nn2-c2ccc(S(N)(=O)=O)cc2)cc1 [Celecoxib],89%
10,NCCCNCCSP(=O)(O)O [Amifostine],93.1%

# System: MDA-MB-436
# Test: as above
# Settings: 9.9 nM; incubation time: 72 h
# Description: as §1
row,Structure (SMILES),normalised viability
1,CCN(CC)CCCC(C)Nc1c2ccc(Cl)cc2nc2ccc(OC)cc12 (stereo not given) [Mepacrine],108%

# Same assay, conditions: 10 nM; incubation time: 72 h
row,Structure (SMILES),normalised viability
1,O=C(/C=C/c1cccnc1)NCCCCC1CCN(C(=O)c2ccccc2)CC1 [FK-866],38%
2,CC[C@@H]1C(=O)N(C)c2cnc(Nc3ccc(C(=O)NC4CCN(C)CC4)cc3OC)nc2N1C1CCCC1 [BI 2536],77.8%

# Same assay, conditions: 100 nM; incubation time: 72 h
row,Structure (SMILES),normalised viability
1,Nc1nc(F)nc2c1ncn2[C@@H]1O[C@H](CO)[C@@H](O)[C@@H]1O [Fludarabine],95.2%
2,Nc1ncn([C@H]2C[C@H](O)[C@@H](CO)O2)c(=O)n1 [Decitabine],89.6% and 90.8%
3,O=C(O)C1(C(=O)O)CCC1.[NH2-].[NH2-].[Pt+2] [Carboplatin],93.3%
4,N#Cc1ccc(C(c2ccc(C#N)cc2)n2cncn2)cc1 [Letrozole],106%
5,C1CN1c1nc(N2CC2)nc(N2CC2)n1 [Triethylenemelamine],105%
6,CCCS(=O)(=O)Nc1ccc(F)c(C(=O)c2c[nH]c3ncc(-c4ccc(Cl)cc4)cc23)c1F [Vemurafenib],81.6%
7,O=C(O)C(=O)O.[NH-][C@@H]1CCCC[C@H]1[NH-].[Pt+2] [Oxaliplatin],96.1%
8,CCN(CC)CCCC(C)Nc1c2ccc(Cl)cc2nc2ccc(OC)cc12 (stereo not given) [Mepacrine],91.3%
